Structures can show the parent of a compound that is named as a salt. Where two headings read alike, the source gives them in different places.

For assay [1], the target named is T1, XIAP BIR3 (Homo sapiens, UniProt P98170).
T1 construct: His-BIR3 (241-356, XIAP)
Nature of the assay: XIAP-BIR3/SMAC Homogeneous Time Resolved Fluorescence (HTRF) Assay. Type of assay: binding. Here is the method:
A. XIAP-BIR3/SMAC Homogeneous Time Resolved Fluorescence (HTRF) Assay Assays were performed in black, flat-bottom, 384-well plates. […] The reaction was incubated at room temperature for 60 minutes, following which 10 μl of mouse anti-6×His-terbium labeled Fab (Medarex, Cis-bio) was added to the reaction (40 μl) for an additional 30 minute incubation. […] Compounds were dissolved at 3 mM in dimethylsulfoxide (DMSO) and evaluated at eleven serially diluted concentrations. IC50 and Ki values were derived by non-linear regression analysis.

In assay [2] the target is T2, XIAP BIR2-3 (Homo sapiens, UniProt P98170, C202A/C213G).
T2 construct: His-BIR2-3 (125-356, C202A/C213G, XIAP)
Nature of the assay: XIAP-BIR2-3 dimeric SMAC Peptide Homogeneous Time Resolved Fluorescence (HTRF) Assay. Type of assay: binding. The procedure:
B. […] Assays were performed in black, flat-bottom, 384-well plates. […] Compounds were dissolved at 3 mM in dimethylsulfoxide (DMSO) and evaluated at eleven serially diluted concentrations. IC50 and Ki values were derived by non-linear regression analysis.

Setting [3] is: 1 nM N-His-BIR3 (241-356, XIAP), 5 nM fluorescein labeled SMAC peptide, HTRF signal, read-out: XIAP BIR3 IC50.
Where [4] appears, read: 0.5 nM N-His-BIR2-3 (125-356, C202A/C213G, XIAP), 20 nM fluorescein labeled dimeric SMAC peptide, HTRF signal, read-out: XIAP BIR2-3 IC50.

T2 sequence (P98170 125-356 C202A/C213G): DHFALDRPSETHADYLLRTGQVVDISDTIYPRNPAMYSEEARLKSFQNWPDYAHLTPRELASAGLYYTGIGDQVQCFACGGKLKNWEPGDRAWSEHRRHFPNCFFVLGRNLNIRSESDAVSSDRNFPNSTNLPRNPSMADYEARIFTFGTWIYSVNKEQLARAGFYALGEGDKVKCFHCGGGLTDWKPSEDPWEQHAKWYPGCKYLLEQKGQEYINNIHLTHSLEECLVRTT
T1 sequence (P98170 241-356): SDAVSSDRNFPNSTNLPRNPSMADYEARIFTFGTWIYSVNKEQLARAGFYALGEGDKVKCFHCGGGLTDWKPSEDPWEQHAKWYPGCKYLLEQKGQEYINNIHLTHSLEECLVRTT

For the compound `CN[C@@H](C)C(=O)N[C@H](C(=O)N1C[C@@H](c2ccc3c(c2)CN(C(=O)[C@@H](NC(=O)[C@H](C)NC)C(C)(C)C)[C@H](C(=O)N[C@@H]2CCCc4ccccc42)C3)C[C@H]1C(=O)N[C@@H](Cc1ccccc1)C(=O)NC1CC1)C(C)(C)C` [Example 64, (S)-7-((3R,5S)-5-(((S)-1-(Cyclopropylamino)-1-oxo-3-phenylpropan-2-yl)carbamoyl)-1-((S)-3,3-dimethyl-2-((S)-2-(methylamino)propanamido)butanoyl)pyrrolidin-3-yl)-2-((S)-3,3-dimethyl-2-((S)-2-(methylamino)propanamido)butanoyl)-N-((R)-1,2,3,4-tetrahydronaphthalen-1-yl)-1,2,3,4-tetrahydroisoquinoline-3-carboxamide], the IC50 is 25.6 nM in assay [1] (setting [3]) and 3.8 nM in assay [2] (setting [4]).
For the compound `CN[C@@H](C)C(=O)N[C@H](C(=O)N1C[C@@H](c2ccc3c(c2)CN(C(=O)[C@@H](NC(=O)[C@H](C)NC)C(C)(C)C)[C@H](C(=O)N[C@@H]2CCCc4ccccc42)C3)C[C@H]1C(=O)N[C@@H](Cc1ccccc1)C(=O)NCCOC)C(C)(C)C` [Example 61, (S)-2-((S)-3,3-Dimethyl-2-((S)-2-(methylamino)propanamido)butanoyl)-7-((3R,5S)-1-((S)-3,3-dimethyl-2-((S)-2-(methylamino)propanamido)butanoyl)-5-(((S)-1-((2-methoxyethyl)amino)-1-oxo-3-phenylpropan-2-yl)carbamoyl)pyrrolidin-3-yl)-N-((R)-1,2,3,4-tetrahydronaphthalen-1-yl)-1,2,3,4-tetrahydroisoquinoline-3-carboxamide], the IC50 in assay [1] (setting [3]) is 22.1 nM; in assay [2] (setting [4]), 3.4 nM.
`CN[C@@H](C)C(=O)N[C@H](C(=O)N1C[C@@H](c2ccc3c(c2)CN(C(=O)[C@@H](NC(=O)[C@H](C)NC)C(C)(C)C)[C@H](C(=O)N[C@@H]2CCCc4ccccc42)C3)C[C@H]1C(=O)N[C@@H](Cc1ccccc1)C(=O)Nc1cccc(-c2cnco2)c1)C(C)(C)C` [Example 58, (S)-2-((S)-3,3-Dimethyl-2-((S)-2-(methylamino)propanamido)butanoyl)-7-((3R,5S)-1-((S)-3,3-dimethyl-2-((S)-2-(methylamino)propanamido)butanoyl)-5-(((S)-1-((3-(oxazol-5-yl)phenyl)amino)-1-oxo-3-phenylpropan-2-yl)carbamoyl)pyrrolidin-3-yl)-N-((R)-1,2,3,4-tetrahydronaphthalen-1-yl)-1,2,3,4-tetrahydroisoquinoline-3-carboxamide]: the IC50 worked out at 7.6 nM in assay [1] (setting [3]) and 2.3 nM in assay [2] (setting [4]).
For `CN[C@@H](C)C(=O)N[C@H](C(=O)N1CC(c2ccc3c(c2)CN(C(=O)[C@@H](NC(=O)[C@H](C)NC)C24CC5CC(CC(C5)C2)C4)[C@H](C(=O)NC2CCCc4ccccc42)C3)C[C@H]1C(=O)NC1CCCc2ccccc21)C(C)(C)C` (stereo partly drawn) [Example 87, (S)-2-((S)-2-((3S,5S,7S)-Adamantan-1-yl)-2-((S)-2-(methylamino)propanamido)acetyl)-7-((3R,5S)-1-((S)-3,3-dimethyl-2-((S)-2-(methylamino)propanamido)butanoyl)-5-(((R)-1,2,3,4-tetrahydronaphthalen-1-yl)carbamoyl)pyrrolidin-3-yl)-N—((R)-1,2,3,4-tetrahydronaphthalen-1-yl)-1,2,3,4-tetrahydroisoquinoline-3-carboxamide, 2 TFA], the IC50 in assay [1] (setting [3]) was 7.3 nM; in assay [2] (setting [4]), 5.9 nM.
The matching figures for `CC[C@H](NC)C(=O)N[C@H](C(=O)N1Cc2cc(C(=O)N[C@H]3C[C@@H](C(=O)N[C@@H]4CCCc5ccccc54)N(C(=O)[C@@H](NC(=O)[C@H](C)NC)C(C)(C)C)C3)ccc2C[C@H]1C(=O)N[C@@H]1CCCc2ccccc21)C(C)(C)C` [Example 3, (S)-2-((S)-3,3-Dimethyl-2-((S)-2-(methylamino)butanamido)butanoyl)-N^7-((3S,5S)-1-((S)-3,3-dimethyl-2-((S)-2-(methylamino)propanamido)butanoyl)-5-(((R)-1,2,3,4-tetrahydronaphthalen-1-yl)carbamoyl)pyrrolidin-3-yl)-N^3-((R)-1,2,3,4-tetrahydronaphthalen-1-yl)-1,2,3,4-tetrahydroisoquinoline-3,7-dicarboxamide]: 6 nM and 3 nM.
Turning to `CN[C@@H](C)C(=O)N[C@H](C(=O)N1Cc2cc([C@H]3C[C@@H](C(=O)N[C@@H]4CCCc5ccccc54)N(C(=O)[C@@H](NC(=O)[C@H](C)NC)C(C)(C)C)C3)ccc2C[C@H]1C(=O)N[C@H](COC)Cc1ccccc1)C(C)(C)C` [Example 39, (S)-2-((S)-3,3-Dimethyl-2-((S)-2-(methylamino)propanamido)butanoyl)-7-((3R,5S)-1-((S)-3,3-dimethyl-2-((S)-2-(methylamino)propanamido)butanoyl)-5-(((R)-1,2,3,4-tetrahydronaphthalen-1-yl)carbamoyl)pyrrolidin-3-yl)-N-((S)-1-methoxy-3-phenylpropan-2-yl)-1,2,3,4-tetrahydroisoquinoline-3-carboxamide], the IC50 is 7.2 nM in assay [1] (setting [3]) and 5.6 nM in assay [2] (setting [4]).
For `CN[C@@H](C)C(=O)N[C@H](C(=O)N1C[C@@H](c2ccc3c(c2)CN(C(=O)[C@@H](NC(=O)[C@H](C)NC)C(C)(C)C)[C@H](C(=O)N[C@@H]2CCCc4ccccc42)C3)C[C@H]1C(=O)N[C@H](COC)Cc1ccccc1)C(C)(C)C` [Example 75, (S)-2-((S)-3,3-Dimethyl-2-((S)-2-(methylamino)propanamido)butanoyl)-7-((3R,5S)-1-((S)-3,3-dimethyl-2-((S)-2-(methylamino)propanamido)butanoyl)-5-(((S)-1-methoxy-3-phenylpropan-2-yl)carbamoyl)pyrrolidin-3-yl)-N-((R)-1,2,3,4-tetrahydronaphthalen-1-yl)-1,2,3,4-tetrahydroisoquinoline-3-carboxamide], in that order: 14.5 nM and 3 nM.
For `CN[C@@H](C)C(=O)N[C@H](C(=O)N1Cc2cc([C@H]3C[C@@H](C(=O)N[C@@H]4CCCc5ccccc54)N(C(=O)[C@@H](NC(=O)[C@H](C)NC)C(C)(C)C)C3)ccc2C[C@H]1C(=O)N[C@H](C)c1ccccc1F)C(C)(C)C` [Example 23, (S)-2-((S)-3,3-Dimethyl-2-((S)-2-(methylamino)propanamido)butanoyl)-7-((3R,5S)-1-((S)-3,3-dimethyl-2-((S)-2-(methylamino)propanamido)butanoyl)-5-(((R)-1,2,3,4-tetrahydronaphthalen-1-yl)carbamoyl)pyrrolidin-3-yl)-N—((R)-1-(2-fluorophenyl)ethyl)-1,2,3,4-tetrahydroisoquinoline-3-carboxamide], the IC50 in assay [1] (setting [3]) is 4 nM; in assay [2] (setting [4]) it was 3 nM.
The matching figures for `CN[C@@H](C)C(=O)N[C@H](C(=O)N1Cc2cc([C@H]3C[C@@H](C(=O)N[C@@H]4CCCc5ccccc54)N(C(=O)[C@@H](NC(=O)[C@H](C)NC)C(C)(C)C)C3)ccc2C[C@H]1C(=O)N[C@@H]1CCCc2cc(OC)ccc21)C(C)(C)C` [Example 37, (S)-2-((S)-3,3-Dimethyl-2-((S)-2-(methylamino)propanamido)butanoyl)-7-((3R,5S)-1-((S)-3,3-dimethyl-2-((S)-2-(methylamino)propanamido)butanoyl)-5-(((R)-1,2,3,4-tetrahydronaphthalen-1-yl)carbamoyl)pyrrolidin-3-yl)-N-((R)-6-methoxy-1,2,3,4-tetrahydronaphthalen-1-yl)-1,2,3,4-tetrahydroisoquinoline-3-carboxamide]: 2.9 nM and 1.8 nM.
As to `CN[C@@H](C)C(=O)N[C@H](C(=O)N1C[C@@H](c2ccc3c(c2)CN(C(=O)[C@@H](NC(=O)[C@H](C)NC)C(C)(C)C)[C@H](C(=O)N[C@@H]2CCCc4ccccc42)C3)C[C@H]1C(=O)N[C@@H](Cc1ccccc1)C(=O)NC(C)C)C(C)(C)C` [Example 56, (S)-2-((S)-3,3-Dimethyl-2-((S)-2-(methylamino)propanamido)butanoyl)-7-((3R,5S)-1-((S)-3,3-dimethyl-2-((S)-2-(methylamino)propanamido)butanoyl)-5-(((S)-1-(isopropylamino)-1-oxo-3-phenylpropan-2-yl)carbamoyl)pyrrolidin-3-yl)-N-((R)-1,2,3,4-tetrahydronaphthalen-1-yl)-1,2,3,4-tetrahydroisoquinoline-3-carboxamide], the IC50 in assay [1] is 8.8 nM; in assay [2], 2 nM.
On to `CN[C@@H](C)C(=O)N[C@H](C(=O)N1C[C@@H](c2ccc3c(c2)CN(C(=O)[C@@H](NC(=O)[C@H](C)NC)C(C)(C)SCC(=O)N(C)C)[C@H](C(=O)N[C@@H]2CCCc4ccccc42)C3)C[C@H]1C(=O)N[C@@H]1CCCc2ccccc21)C(C)(C)C` [Example 30, (S)-7-((3R,5S)-1-((S)-3,3-Dimethyl-2-((S)-2-(methylamino)propanamido)butanoyl)-5-(((R)-1,2,3,4-tetrahydronaphthalen-1-yl)carbamoyl)pyrrolidin-3-yl)-2-((R)-3-((2-(dimethylamino)-2-oxoethyl)thio)-3-methyl-2-((S)-2-(methylamino)propanamido)butanoyl)-N-((R)-1,2,3,4-tetrahydronaphthalen-1-yl)-1,2,3,4-tetrahydroisoquinoline-3-carboxamide], for which the half-maximal inhibitory concentration (IC50) amounted to 3.9 nM in assay [1] (setting [3]) and 5.7 nM in assay [2] (setting [4]).
